The test system of one test is MOLT-4. The test is described as follows: selective drug sensitivity score (sDSS, relative to normal bone marrow) (sDSS (score)); higher = more potent and effective on the cell line relative to normal bone marrow cells. The conditions noted are these: 72 h.
`Oc1ncnc2[nH]ncc12` [Allopurinol] (top concentration 10000 nM): the “selective drug sensitivity score” value was -0.64.
With `CC(C)n1cnc2c(NCCc3ccc(O)cc3)nc(-c3csc4ccccc34)nc21` [StemRegenin_1] (top concentration 10000 nM), the “selective drug sensitivity score” value worked out at 2.5.
Still for that read-out and setting: under `C#Cc1cccc(Nc2ncnc3cc4c(cc23)OCCOCCOCCO4)c1` [Icotinib] (top concentration 10000 nM) stands 0.2; under `CN[C@@H](C)C(=O)N[C@H]1CN(C(=O)CC(C)C)CC[C@H]2CC[C@@H](C(=O)NC(c3ccccc3)c3ccccc3)N2C1=O` [AT-406] (top concentration 10000 nM), -1.26; under `CC(C)(O)CC(=O)NCCn1ccc2ncnc(Nc3ccc(Oc4cccc(C(F)(F)F)c4)c(Cl)c3)c21` [TAK-285] (top concentration 2500 nM), 0.
As to `COc1cc(C)[nH]c(=O)c1CNC(=O)c1c(C)n([C@H](C)C2CCOCC2)c2ccccc12` [CPI-360] (top concentration 10000 nM), the “selective drug sensitivity score” value turned out to be 0.
As for `Cc1cc2c(C(=O)NC[C@H](C)c3ccccc3)c(O)c(O)cc2c(O)c1-c1c(C)cc2c(C(=O)NC[C@H](C)c3ccccc3)c(O)c(O)cc2c1O` [Sabutoclax] (top concentration 25000 nM), the “selective drug sensitivity score” value worked out at 9.18.
Regarding `CC(C)(C)C[C@@H]1N[C@@H](C(=O)N[C@H]2CC[C@H](O)CC2)[C@H](c2cccc(Cl)c2F)[C@]12C(=O)Nc1cc(Cl)ccc12` (top concentration 10000 nM), the “selective drug sensitivity score” value was 12.9.
Regarding `C[C@@H]1C[C@H]2[C@@H]3CCC4=CC(=O)C=C[C@]4(C)[C@@]3(F)[C@@H](O)C[C@]2(C)[C@@]1(O)C(=O)CO` [Dexamethasone] (top concentration 10000 nM), the “selective drug sensitivity score” value turned out to be 1.48.

In another test the test system is PF-382. Described as above. The note with it: 72 h.
Take `Nc1nc2cc(-c3ccc4ncc(C(=O)N5CCOCC5)n4c3)ccc2o1` [Serabelisib] (top concentration 10000 nM): the “selective drug sensitivity score” value was determined as 0.36.
Take `COc1cccc(-c2ccc(NC(=O)C3=C(C(=O)O)CCC3)c(F)c2)c1` [Vidofludimus] (top concentration 10000 nM): the “selective drug sensitivity score” value came out at 4.8.
Regarding `Cc1cccc(-c2nn3c(c2-c2ccnc4ccc(C(N)=O)cc24)CCC3)n1` [Galunisertib] (top concentration 1000 nM), the “selective drug sensitivity score” value was 0.
On to `COc1cc2c(N3CCN(C(=O)Nc4ccc(OC(C)C)cc4)CC3)ncnc2cc1OCCCN1CCCCC1` [Tandutinib] (top concentration 1000 nM), for which the “selective drug sensitivity score” value came out at 0.
As to `Cc1c(F)cc(C(=O)NC2CC2)cc1-c1ccc(C(=O)NCC(C)(C)C)cn1` [Losmapimod] (top concentration 10000 nM), the “selective drug sensitivity score” value was found to be 0.02.
With `Nc1nc(N)c2nc(-c3cccc(O)c3)c(-c3cccc(O)c3)nc2n1` [TG100-115] (top concentration 10000 nM), the “selective drug sensitivity score” value was -0.2.
As to `C[C@]12CC[C@@H]3c4ccc(O)cc4C[C@@H](CCCCCCCCC[S+]([O-])CCCC(F)(F)C(F)(F)F)[C@H]3[C@@H]1CC[C@@H]2O` (stereo not given in full) [Fulvestrant] (top concentration 1000 nM), the “selective drug sensitivity score” value came to 0.
In the case of `O=C(Nc1cccnc1)N1CCC(Cc2cccc(Oc3ccc(C(F)(F)F)cn3)c2)CC1` [PF-3845] (top concentration 10000 nM), the “selective drug sensitivity score” value is 1.96.
Consider `COc1cc2c(cc1OCCCN1CCCC1)N=C(N)C21CCC1` [A-366] (top concentration 25000 nM), for which the “selective drug sensitivity score” value is -0.84.
For the compound `Oc1ncnc2[nH]ncc12` [Allopurinol] (top concentration 10000 nM), the “selective drug sensitivity score” value was -0.64.
Take `CC(C)n1cnc2c(NCCc3ccc(O)cc3)nc(-c3csc4ccccc34)nc21` [StemRegenin_1] (top concentration 10000 nM): the “selective drug sensitivity score” value turned out to be 0.9.
With `C#Cc1cccc(Nc2ncnc3cc4c(cc23)OCCOCCOCCO4)c1` [Icotinib] (top concentration 10000 nM), the “selective drug sensitivity score” value amounted to 0.5.
On to `CN[C@@H](C)C(=O)N[C@H]1CN(C(=O)CC(C)C)CC[C@H]2CC[C@@H](C(=O)NC(c3ccccc3)c3ccccc3)N2C1=O` [AT-406] (top concentration 10000 nM), for which the “selective drug sensitivity score” value was -1.26.
On to `CC(C)(O)CC(=O)NCCn1ccc2ncnc(Nc3ccc(Oc4cccc(C(F)(F)F)c4)c(Cl)c3)c21` [TAK-285] (top concentration 2500 nM), for which the “selective drug sensitivity score” value was 0.
The same measure, in the same setting: under `COc1cc(C)[nH]c(=O)c1CNC(=O)c1c(C)n([C@H](C)C2CCOCC2)c2ccccc12` [CPI-360] (top concentration 10000 nM) stands 0.
In the case of `Cc1cc2c(C(=O)NC[C@H](C)c3ccccc3)c(O)c(O)cc2c(O)c1-c1c(C)cc2c(C(=O)NC[C@H](C)c3ccccc3)c(O)c(O)cc2c1O` [Sabutoclax] (top concentration 25000 nM), the “selective drug sensitivity score” value stood at 11.1.
The same measure, in the same setting: under `CC(C)(C)C[C@@H]1N[C@@H](C(=O)N[C@H]2CC[C@H](O)CC2)[C@H](c2cccc(Cl)c2F)[C@]12C(=O)Nc1cc(Cl)ccc12` (top concentration 10000 nM) stands -3.94; under `C[C@@H]1C[C@H]2[C@@H]3CCC4=CC(=O)C=C[C@]4(C)[C@@]3(F)[C@@H](O)C[C@]2(C)[C@@]1(O)C(=O)CO` [Dexamethasone] (top concentration 10000 nM), 1.48.

Another test relates to RCH-ACV. Described as above. The note with it: 72 h.
Consider `Nc1nc2cc(-c3ccc4ncc(C(=O)N5CCOCC5)n4c3)ccc2o1` [Serabelisib] (top concentration 10000 nM), for which the “selective drug sensitivity score” value was found to be 6.56.
`COc1cccc(-c2ccc(NC(=O)C3=C(C(=O)O)CCC3)c(F)c2)c1` [Vidofludimus] (top concentration 10000 nM): the “selective drug sensitivity score” value is 8.8.
As to `Cc1cccc(-c2nn3c(c2-c2ccnc4ccc(C(N)=O)cc24)CCC3)n1` [Galunisertib] (top concentration 1000 nM), the “selective drug sensitivity score” value was determined as 0.
For `COc1cc2c(N3CCN(C(=O)Nc4ccc(OC(C)C)cc4)CC3)ncnc2cc1OCCCN1CCCCC1` [Tandutinib] (top concentration 1000 nM), the “selective drug sensitivity score” value came out at 0.
As for `Cc1c(F)cc(C(=O)NC2CC2)cc1-c1ccc(C(=O)NCC(C)(C)C)cn1` [Losmapimod] (top concentration 10000 nM), the “selective drug sensitivity score” value is 11.5.
As for `Nc1nc(N)c2nc(-c3cccc(O)c3)c(-c3cccc(O)c3)nc2n1` [TG100-115] (top concentration 10000 nM), the “selective drug sensitivity score” value stood at 5.6.
`C[C@]12CC[C@@H]3c4ccc(O)cc4C[C@@H](CCCCCCCCC[S+]([O-])CCCC(F)(F)C(F)(F)F)[C@H]3[C@@H]1CC[C@@H]2O` (stereo not given in full) [Fulvestrant] (top concentration 1000 nM): the “selective drug sensitivity score” value turned out to be 0.
The same measure, in the same setting: under `O=C(Nc1cccnc1)N1CCC(Cc2cccc(Oc3ccc(C(F)(F)F)cn3)c2)CC1` [PF-3845] (top concentration 10000 nM) stands 5.66; under `COc1cc2c(cc1OCCCN1CCCC1)N=C(N)C21CCC1` [A-366] (top concentration 25000 nM), 0.06; under `Oc1ncnc2[nH]ncc12` [Allopurinol] (top concentration 10000 nM), -0.64.
Turning to `CC(C)n1cnc2c(NCCc3ccc(O)cc3)nc(-c3csc4ccccc34)nc21` [StemRegenin_1] (top concentration 10000 nM), the “selective drug sensitivity score” value was -0.6.
Turning to `C#Cc1cccc(Nc2ncnc3cc4c(cc23)OCCOCCOCCO4)c1` [Icotinib] (top concentration 10000 nM), the “selective drug sensitivity score” value is 1.2.
`CN[C@@H](C)C(=O)N[C@H]1CN(C(=O)CC(C)C)CC[C@H]2CC[C@@H](C(=O)NC(c3ccccc3)c3ccccc3)N2C1=O` [AT-406] (top concentration 10000 nM): the “selective drug sensitivity score” value came out at 0.84.
Same read-out and setting: the result for `CC(C)(O)CC(=O)NCCn1ccc2ncnc(Nc3ccc(Oc4cccc(C(F)(F)F)c4)c(Cl)c3)c21` [TAK-285] (top concentration 2500 nM) reads 0; that for `COc1cc(C)[nH]c(=O)c1CNC(=O)c1c(C)n([C@H](C)C2CCOCC2)c2ccccc12` [CPI-360] (top concentration 10000 nM), 0.
As for `Cc1cc2c(C(=O)NC[C@H](C)c3ccccc3)c(O)c(O)cc2c(O)c1-c1c(C)cc2c(C(=O)NC[C@H](C)c3ccccc3)c(O)c(O)cc2c1O` [Sabutoclax] (top concentration 25000 nM), the “selective drug sensitivity score” value worked out at 16.8.
Still for that read-out and setting: the result for `CC(C)(C)C[C@@H]1N[C@@H](C(=O)N[C@H]2CC[C@H](O)CC2)[C@H](c2cccc(Cl)c2F)[C@]12C(=O)Nc1cc(Cl)ccc12` (top concentration 10000 nM) reads 12.4; that for `C[C@@H]1C[C@H]2[C@@H]3CCC4=CC(=O)C=C[C@]4(C)[C@@]3(F)[C@@H](O)C[C@]2(C)[C@@]1(O)C(=O)CO` [Dexamethasone] (top concentration 10000 nM), 38.8.

Source of the values: the supplement of paper PMC8967900.
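Further: ALL cell lines in 384-well plates, five doses spanning 10,000-fold, each plate scaled between vehicle and 100 µmol/L benzalkonium chloride controls, sDSS an adapted area-under-curve metric.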
